In patent US11576918B2, “Pharmaceutical composition and extract of Dendrobii Caulis with eye care effect and uses of preparing the same thereof” (AMX Pharma Inc., priority 2019, dated 2023):
Read-outs that look alike come from different tables or passages of the source.

Columns and labels:
[1] = test system: RGC-5 cells; format: cell-based; parameters: toxic reaction / protective activity: dose or concentration left out as unconfirmed; settings: for protection effect (cell viability): 500 μM hydrogen peroxide, 24 h pre-treatment
Procedure: (§1) The present experiment took human retinal cell (ARPE-19) and rat retinal ganglion cells (RGC-5) as model cell lines. ARPE-19 cells were cultured in DMEM-F12 medium containing 10% fetal bovine serum (FBS), 0.2% sodium bicarbonate and antibiotics (penicillin 100 units/ml, streptomycin 100 μg/ml); RGC-5 were cultured in DMEM medium containing 10% fetal bovine serum (FBS) and antibiotics (penicillin 100 units/ml, streptomycin 100 μg/ml).
(§2) ARPE-19 and RGC-5 cells were seeded in 96-well plate. After 1 day, the cells were pre-treated with different concentrations of Dendrobii Caulis extract (A or A-2) or compounds 1-4 for 24 hours, and then exposed to (1) hydrogen peroxide (H2O2; 500 μM)) or (2) hypoxic environment or (3) ultraviolet (UV) irradiation (30 μJ/cm^2; three consecutive shots, for 60 seconds each with 60 second intervals, to trigger cell death. After 24-h culture, medium was removed and replaced with 10% precooled trichloroacetic acid (TCA) to fix cells at 4° C. for 1 h, then washed with ddH2O and dried. Next, 0.4% SRB 100 μl (w/v, in 1% acetic acid) was added to each well to stain the cells for 60 minutes, then washed several times with 1% acetic acid and dried plate.—The SRB in cells was dissolved in 150 μl of 10 mM Tris-HCl and measured the absorbance at 540 nm in an ELISA reader. The survival rate was calculated by comparing each treatment with the untreated control group as the 100% survival rate.

[2] = test system: ARPE-19 cells; format: cell-based; parameters: protective activity / toxic reaction: dose or concentration left out as unconfirmed; settings: for protection effect (cell viability): 500 μM hydrogen peroxide, 24 h pre-treatment
Procedure: as §1, §2

[3] = test system: zebrafish cataract; test: UVC-induced zebrafish cataract test; format: in vivo
Procedure: Zebrafish were randomly grouped (12 for each group) into blank control group, UVC irradiation group (300 μJ/cm^2) and UVC irradiation+treating group with A-2 at 0.495, 0.99, and 4.95 mg/ml three dosages or with compound 1 at 0.1 and 1.0 mM two dosages. The zebrafish were pre-fed with A-2 or compound 1 for one week, then subjected to UVC irradiation to observe the crystal change of the zebrafish daily. Before irradiating with UVC, the zebrafish is under anesthesia to expose only its eye to UVC (300 μJ/cm^2) for about 3 minutes, consecutively holding for seven days. The zebrafish eyes were observed every day. The severity of zebrafish cataract was scored from 1 to 3, depending on the clear level of the crystal body, in which the higher score represents the more turbidity of the crystal body. The scores are then plotted.

[4] = test system: retinal damage; settings: absence of oxygen; recent study; cited from earlier work
[5] = test system: optic nerve cell strains; settings: some studies; cited from earlier work
[6] = 1-10 mM, hydrogen peroxide, hypoxia or UV treatment
[7] = hydrogen peroxide, hypoxia or UV irradiation
[8] = hydrogen peroxide, hypoxia or UV treatment
[9] = hydrogen peroxide and ultraviolet light

CC(C)(O)[C@H]1C2C(=O)OC1[C@@H](O)[C@]1(C)C2CC[C@H]1COC1OC(CO)C(O)C(O)C1O (stereo partly drawn) [compound 1, 2β, 3β, 11, 12-tetrahydroxypicrotoxan-3(15)-olide 11-O-β-D-glucopyranoside]
toxic reaction [1]: no toxic reaction
protection effect (cell viability) ([1]; hypoxia or UV irradiation): can protect
concentration dependence of protective activity [1, 6]: concentration-dependent protective activity
protective effect compared with lutein [1, 7]: superior to lutein
protective activity [1, 8]: more than 80%
toxic reaction [2]: no toxic reaction
protection effect (cell viability) ([2]; hypoxia or UV irradiation): can protect
concentration dependence of protective activity [2, 6]: concentration-dependent protective activity
protective effect compared with lutein [2, 7]: superior to lutein
protective activity [2, 8]: more than 80%
occurrence of UV-induced cataract ([3]; 1 mM, fourth day): almost no cataract occurred
occurrence of UV-induced cataract ([3]; 0.1 and 1.0 mM, pre-fed one week): can significantly reduce the occurrence of zebrafish cataract

CC(C)(O)[C@H]1C2C(=O)OC1[C@@H](O)[C@]1(C)C2CC[C@H]1CO (stereo partly drawn) [compound 2, 2β, 3β, 11, 12-tetrahydroxypicrotoxan-3 (15)-olide]
protection (cell viability) [1, 9]: can also protect
protective effect compared with lutein [1, 9]: comparable to lutein
protection (cell viability) [2, 9]: can also protect
protective effect compared with lutein [2, 9]: comparable to lutein

CC(C)[C@@H]1[C@H]2OC(=O)[C@@H]1[C@@H]1CC[C@@H]3CN(C)[C@H]2[C@@]31C [compound 3, dendrobine]
protection effect (cell viability) ([1]; hypoxia or UV irradiation): does not show enough protective activity
protection effect (cell viability) ([2]; hypoxia or UV irradiation): does not show enough protective activity

COc1cc(CCc2cc(OC)c(O)c(OC)c2)ccc1O [moscatilin]
protection of retinal damage [4]: can protect retinal damage in the absence of oxygen
toxicity to optic nerve cell strains [5]: toxic
